Test results taken from PubChem BioAssay (NCI).
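Test compounds were applied to cells in 96-well plates for 48 hours at 5 doses. TGI marks complete inhibition of growth.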

Experiments:
Test in all cases: NCI tumour cell line growth inhibition, 48 h
786-0 renal = tested on: 786-0 renal
A549 NSCLC = tested on: A549 NSCLC
ACHN renal = tested on: ACHN renal
BT-549 breast = tested on: BT-549 breast
CAKI-1 renal = tested on: CAKI-1 renal
CCRF-CEM leukemia = tested on: CCRF-CEM leukemia
COLO 205 colon = tested on: COLO 205 colon
DU-145 prostate = tested on: DU-145 prostate
EKVX NSCLC = tested on: EKVX NSCLC
HCC-2998 colon = tested on: HCC-2998 colon
HCT-116 colon = tested on: HCT-116 colon
HCT-15 colon = tested on: HCT-15 colon
HOP-62 NSCLC = tested on: HOP-62 NSCLC
HOP-92 NSCLC = tested on: HOP-92 NSCLC
HT29 colon = tested on: HT29 colon
IGROV1 ovarian = tested on: IGROV1 ovarian
K-562 leukemia = tested on: K-562 leukemia
KM12 colon = tested on: KM12 colon
LOX IMVI melanoma = tested on: LOX IMVI melanoma
M14 melanoma = tested on: M14 melanoma
MCF7 breast = tested on: MCF7 breast
MDA-MB-435 = tested on: MDA-MB-435
MDA-N = tested on: MDA-N
MOLT-4 leukemia = tested on: MOLT-4 leukemia
NCI-H226 lung = tested on: NCI-H226 lung
NCI-H23 lung = tested on: NCI-H23 lung
NCI-H460 lung = tested on: NCI-H460 lung
NCI/ADR-RES ovarian = tested on: NCI/ADR-RES ovarian
OVCAR-3 ovarian = tested on: OVCAR-3 ovarian
OVCAR-5 ovarian = tested on: OVCAR-5 ovarian
OVCAR-8 ovarian = tested on: OVCAR-8 ovarian
PC-3 prostate = tested on: PC-3 prostate
RPMI-8226 leukemia = tested on: RPMI-8226 leukemia
SF-295 CNS = tested on: SF-295 CNS
SF-539 CNS = tested on: SF-539 CNS
SK-MEL-2 melanoma = tested on: SK-MEL-2 melanoma
SK-MEL-28 melanoma = tested on: SK-MEL-28 melanoma
SK-MEL-5 melanoma = tested on: SK-MEL-5 melanoma
SK-OV-3 ovarian = tested on: SK-OV-3 ovarian
SN12C renal = tested on: SN12C renal
SNB-19 CNS = tested on: SNB-19 CNS
SNB-75 CNS = tested on: SNB-75 CNS
SR leukemia = tested on: SR leukemia
SW-620 colon = tested on: SW-620 colon
T-47D breast = tested on: T-47D breast
U251 CNS = tested on: U251 CNS
UACC-257 melanoma = tested on: UACC-257 melanoma
UACC-62 melanoma = tested on: UACC-62 melanoma
UO-31 renal = tested on: UO-31 renal
A498 renal = tested on: A498 renal
HL-60(TB) leukemia = tested on: HL-60(TB) leukemia
HS 578T breast = tested on: HS 578T breast
MALME-3M melanoma = tested on: MALME-3M melanoma
MDA-MB-231 breast = tested on: MDA-MB-231 breast
NCI-H522 lung = tested on: NCI-H522 lung
OVCAR-4 ovarian = tested on: OVCAR-4 ovarian
RXF 393 renal = tested on: RXF 393 renal
SF-268 CNS = tested on: SF-268 CNS
TK-10 renal = tested on: TK-10 renal

Measured: TGI

N#C/C(C(=O)Nc1ccccc1)=C(/N)N1CCCCC1
not listed: A498 renal | HL-60(TB) leukemia | HS 578T breast | MALME-3M melanoma | MDA-MB-231 breast | NCI-H522 lung | OVCAR-4 ovarian | RXF 393 renal | SF-268 CNS | TK-10 renal
> 100 µM: all other assays above

CN(C)CCNC(=O)c1cc(NC(=O)c2cc(NC(=O)CC/C=C3/[C@@H]4CC[C@H]3N=N4)cn2C)cn1C
not listed: SK-OV-3 ovarian | T-47D breast | UACC-62 melanoma
> 100 µM: all other assays above
